This note sets out measurements from patent US5192781A, “Thiazole derivatives which are angiotensin II receptor antagonists, their methods of preparation and pharmaceutical compositions in which they are present” (Laboratoires UPSA, priority 1991, dated 1993).

This assay concerns rat adrenal angiotensin II receptors. Description: displacement of radioligand [^125 I]-SIAII specifically bound to rat adrenal angiotensin II receptors. Type of assay: binding. As to conditions: 60 min at 25° C. The procedure:
The affinity of the products of the Examples for angiotensin II receptors is evaluated by the technique of displacing a radioligand specifically bound to rat adrenal angiotensin II receptors.
An aliquot of a rat adrenal gland homogenate incubates in the presence of a single concentration of [^125 I]-SIAII (Sar^1,Tyr^4,Ile^8 -angiotensin II), which is an angiotensin II receptor antagonist, and two concentrations of competing agents (10^-5 M, 10^-7 M) for 60 min at 25° C.
The reaction is completed by the addition of a buffer, followed by rapid filtration through glasspaper filters. The non-specific binding is determined in the presence of angiotensin II.
The results are expressed, for the concentrations tested, as the percentage displacement of the radioligand specifically bound to the adrenal angiotensin II receptors.

Consider `CCCc1nc(C)sc1Cc1ccc(NC(=O)c2ccccc2S(=O)(=O)O)cc1` [Example 11, 2-[4-(2-methyl-4-propylthiazol-5-ylmethyl)phenylaminocarbonyl]benzosulfonic acid], for which the “% displacement of the labeled ligand” value (1E-5M competing agent, 10 µM) stood at 94% and the “% displacement of the labeled ligand” value (1E-7M competing agent, 0.1 µM) turned out to be 59%.

With `CCCc1nc(SCCCC(=O)OCC)sc1Cc1ccc(NC(=O)c2ccccc2S(=O)(=O)O)cc1` [Example 15, Ethyl 4-[[4-propyl-5-(4-(2-sulfobenzoylamino)benzyl)thiazol-2-yl]mercapto]butyrate], the “% displacement of the labeled ligand” value is, setting by setting: (1E-5M competing agent, 10 µM) 79%; (1E-7M competing agent, 0.1 µM) 0%.

Turning to `CCCc1nc(CC(=O)OC)sc1Cc1ccc(NC(=O)c2ccccc2S(=O)(=O)O)cc1` [Example 26, 2-[4-(2-methoxycarbonylmethyl-4-propylthiazol-5-ylmethyl)phenylaminocarbonyl]benzosulfonic acid], the “% displacement of the labeled ligand” value runs as follows: (1E-5M competing agent, 10 µM) 86%; (1E-7M competing agent, 0.1 µM) 22%.

Turning to `CCCc1nc(CNC(=O)OCC)sc1Cc1ccc(NC(=O)c2ccccc2S(=O)(=O)O)cc1` [Example 30, 2-[4-(2-Ethoxycarbonylaminomethyl-4-propylthiazol-5-ylmethyl)phenylaminocarbonyl]benzosulfonic acid], the “% displacement of the labeled ligand” value by setting is: (1E-5M competing agent, 10 µM) 84%; (1E-7M competing agent, 0.1 µM) 29%.

For the compound `CCOC(=O)CNc1nc(C)c(Cc2ccc(NC(=O)c3ccccc3C(=O)O)cc2)s1` [Example 7, Ethyl (4-methyl-5-(4-(2-carboxybenzoylamino)benzyl)thiazol-2-yl)aminoacetate], the “% displacement of the labeled ligand” value is, setting by setting: (1E-5M competing agent, 10 µM) 35%; (1E-7M competing agent, 0.1 µM) 0%.

For the compound `CCCCCc1nc(N)sc1Cc1ccc(NC(=O)c2ccccc2S(=O)(=O)O)cc1` [Example 44, 2-[4-(2-Amino-4-pentylthiazol-5-ylmethyl)phenylaminocarbonyl]benzosulfonic acid], the “% displacement of the labeled ligand” value runs as follows: (1E-5M competing agent, 10 µM) 91%; (1E-7M competing agent, 0.1 µM) 44%.

As to `CCCc1nc(NC(C)=O)sc1Cc1ccc(NC(=O)c2ccccc2S(=O)(=O)O)cc1` [Example 36, 2-[4-(2-Acetamido-4-propylthiazol-5-yl-methyl)phenylaminocarbonyl]benzosulfonic acid], the “% displacement of the labeled ligand” value by setting is: (1E-5M competing agent, 10 µM) 84%; (1E-7M competing agent, 0.1 µM) 3%.

For the compound `Cc1nc(C)c(Cc2ccc(NC(=O)c3ccccc3C(=O)O)cc2)s1` [Example 4, 2-[4-((2,4-Dimethylthiazol-5-yl)methyl)phenylaminocarbonyl]benzoic acid], the “% displacement of the labeled ligand” value by setting is: (1E-5M competing agent, 10 µM) 58%; (1E-7M competing agent, 0.1 µM) 0%.

On to `CCCc1nc(NCC(=O)OC)sc1Cc1ccc(NC(=O)c2ccccc2S(=O)(=O)O)cc1` [Example 22, Methyl (4-propyl-5-(4-(2-sulfobenzoylamino)benzyl)thiazol-2-yl)aminoacetate], for which the “% displacement of the labeled ligand” value is on record as 89% (1E-5M competing agent, 10 µM) and 5% (1E-7M competing agent, 0.1 µM).

On to `CCCc1nc(N)sc1Cc1ccc(NC(=O)c2ccccc2S(=O)(=O)O)cc1` [Example 33, 2-[4-(2-Amino-4-propylthiazol-5-ylmethyl)phenylaminocarbonyl]benzosulfonic acid], for which the “% displacement of the labeled ligand” value is, setting by setting: (1E-5M competing agent, 10 µM) 85%; (1E-7M competing agent, 0.1 µM) 27%.

For `CCCc1nc(COC)sc1Cc1ccc(NC(=O)c2ccccc2S(=O)(=O)O)cc1` [Example 19, 2-[4-(2-Methoxymethyl-4-propylthiazol-5-yl-methyl)phenylaminocarbonyl]benzosulfonic acid], the “% displacement of the labeled ligand” value turned out to be 89% (1E-5M competing agent, 10 µM) and 55% (1E-7M competing agent, 0.1 µM).

For the compound `CCCc1nc(N)sc1Cc1ccc(NC(=O)c2c(Cl)ccc(Cl)c2C(=O)O)cc1` [Example 41, 2-[4-(2-Amino-4-propylthiazol-5-ylmethyl)phenylaminocarbonyl]-3,6-dichlorobenzoic acid], the “% displacement of the labeled ligand” value was 87% (1E-5M competing agent, 10 µM) and 9% (1E-7M competing agent, 0.1 µM).

On to `CCCCCc1nc(C)sc1Cc1ccc(NC(=O)c2ccccc2S(=O)(=O)O)cc1` [Example 40, 2-[4-(2-methyl-4-pentylthiazol-5-ylmethyl)phenylaminocarbonyl]benzosulfonic acid], for which the “% displacement of the labeled ligand” value worked out at 88% (1E-5M competing agent, 10 µM) and 59% (1E-7M competing agent, 0.1 µM).
